Source: patent US20070128217A1 (priority 2003, published 2007)

What was measured:
[1] = tested on: antibodies in sera from SARS patients (sera 1a, 1b, 2, 6, 37, 62, London, SARS-yellow, SARS-green); format: binding, human; design: Binding of serum 6 to linear peptides of protein X1 of SARS-CoV Urbani / Binding of serum 37 to linear peptides of protein X1 of SARS-CoV Urbani / Binding of serum 6 to looped/cyclic peptide (PEPSCAN-ELISA) / Binding of serum 37 to looped/cyclic peptide (PEPSCAN-ELISA) / Binding of serum 37 to looped/cyclic peptides of protein X1 of SARS-CoV Urbani / Binding of serum 6 to linear peptides of protein X2 / Binding of serum 37 to linear peptides of protein X2 / Binding of serum 37 to looped/cyclic peptides of protein X2 of SARS-CoV Urbani / Binding of serum 6 to linear peptides of protein M of SARS-CoV Urbani / Binding of serum 37 to linear peptides of protein M of SARS-CoV Urbani / Binding of serum 6 to looped/cyclic peptides of protein M of SARS-CoV Urbani / Binding of serum 37 to looped/cyclic peptides of protein M of SARS-CoV Urbani / Binding of serum 6 to linear peptides of protein X3 of SARS-CoV Urbani / Binding of serum 37 to linear peptides of protein X3 of SARS-CoV Urbani / Binding of serum 37 to looped/cyclic peptides of protein X3 of SARS-CoV Urbani / Binding of serum 6 to linear peptides of protein X4 of SARS-CoV Urbani / Binding of serum 37 to linear peptides of protein X4 of SARS-CoV Urbani / Binding of serum 37 to looped/cyclic peptides of protein X4 of SARS-CoV Urbani / Binding of serum 6 to linear peptides of protein X5 of SARS-CoV Urbani / Binding of serum 37 to linear peptides of protein X5 of SARS-CoV Urbani / Binding of serum 37 to looped/cyclic peptides of protein X5 of SARS-CoV Urbani / Binding of serum 6 to linear peptides of protein N of SARS-CoV Urbani / Binding of serum 37 to linear peptides of protein N of SARS-CoV Urbani / Binding of serum 6 to linear peptide (PEPSCAN-ELISA) / Binding of serum 1a to looped/cyclic peptides of protein N of SARS-CoV Urbani / Binding of serum 1b to looped/cyclic peptides of protein N of SARS-CoV Urbani / Binding of serum 2 to looped/cyclic peptides of protein N of SARS-CoV Urbani / Binding of serum 6 to looped/cyclic peptides of protein N of SARS-CoV Urbani / Binding of serum 37 to looped/cyclic peptides of protein N of SARS-CoV Urbani / Binding of serum 62 to looped/cyclic peptides of protein N of SARS-CoV Urbani / Binding of serum London to looped/cyclic peptides of protein N of SARS-CoV Urbani / Binding of serum SARS-green to looped/cyclic peptides of protein N of SARS-CoV Urbani: unit not given here
[2] = tested on: rabbit serum obtained by immunizing a rabbit with the SARS-CoV strain Frankfurt 1; format: binding; design: Binding of a rabbit serum to linear peptides / Binding of a rabbit serum to looped peptides / Rabbit serum linear peptides / Rabbit serum looped peptides / Binding of a rabbit serum to linear peptides of protein N of SARS-CoV Urbani (Rabbit serum linear peptides) / Binding of a rabbit serum to looped/cyclic peptides of protein N of SARS-CoV Urbani (Rabbit serum looped peptides): unit not given here
[3] = tested on: control sera (pooled serum of ten healthy LUMC hospital workers; commercial negative donor pooled serum from the Dutch bloodbank); format: binding, human; design: Binding of Control serum LUMC to linear peptides / Binding of Control serum Blood-bank to linear peptides / Binding of Control serum LUMC to looped peptides / Binding of Control Serum Blood-Bank to Looped peptides / Binding of Control serum LUMC to linear peptides of the protein M of SARS-CoV Urbani / Binding of Control serum Blood-bank to linear peptides of the protein M of SARS-CoV Urbani / Binding of Control serum LUMC to looped peptides of the protein M of SARS-CoV Urbani / Binding of Control Serum Blood-Bank to Looped peptides of the protein M of SARS-CoV Urbani: unit not given here

Row | Sequence | Binding of a rabbit serum to linear peptides [2] | Binding of a rabbit serum to looped peptides [2] | Binding of Control Serum Blood-Bank to Looped peptides [3] | Binding of Control serum Blood-bank to linear peptides [3] | Binding of Control serum LUMC to linear peptides [3] | Binding of Control serum LUMC to looped peptides [3] | Binding of serum 1a to linear peptides of protein X2 [1] | Binding of serum 1a to looped/cyclic peptides of protein X2 of SARS-CoV Urbani [1] | Binding of serum 1b to linear peptides of protein X2 [1] | Binding of serum 1b to looped/cyclic peptides of protein X2 of SARS-CoV Urbani [1] | Binding of serum 2 to linear peptides of protein X2 [1] | Binding of serum 2 to looped/cyclic peptides of protein X2 of SARS-CoV Urbani [1] | Binding of serum 6 to linear peptides of protein X2 [1] | Binding of serum 6 to looped/cyclic peptides of protein X2 of SARS-CoV Urbani [1] | Binding of serum 37 to linear peptides of protein X2 [1] | Binding of serum 37 to looped/cyclic peptides of protein X2 of SARS-CoV Urbani [1] | Binding of serum 62 to linear peptides of protein X2 [1] | Binding of serum 62 to looped/cyclic peptides of protein X2 of SARS-CoV Urbani [1] | Binding of serum London to linear peptides of protein X2 [1] | Binding of serum London to looped/cyclic peptides of protein X2 of SARS-CoV Urbani [1] | also measured
1 | HATATIPLQASLPFG | 0.1 | 0.5 | 0.7 | 0.8 | 0.6 | 0.7 |  |  |  |  |  |  |  |  |  |  |  |  |  |  | Binding of serum 1a to linear peptides of protein X1 of SARS-CoV Urbani [1]: 0.9; Binding of serum 1a to looped/cyclic peptide (PEPSCAN-ELISA) [1]: 0.8; Binding of serum 1b to linear peptides of protein X1 of SARS-CoV Urbani [1]: 0.8; Binding of serum 1b to looped/cyclic peptide (PEPSCAN-ELISA) [1]: 0.6; Binding of serum 2 to linear peptides of protein X1 of SARS-CoV Urbani [1]: 0.6; Binding of serum 2 to looped/cyclic peptide (PEPSCAN-ELISA) [1]: 0.5; Binding of serum 6 to linear peptides of protein X1 of SARS-CoV Urbani [1]: 0.6; Binding of serum 6 to looped/cyclic peptide (PEPSCAN-ELISA) [1]: 0.5; Binding of serum 37 to linear peptides of protein X1 of SARS-CoV Urbani [1]: 0.8; Binding of serum 37 to looped/cyclic peptide (PEPSCAN-ELISA) [1]: 0.6; Binding of serum 62 to linear peptides of protein X1 of SARS-CoV Urbani [1]: 0.7; Binding of serum 62 to looped/cyclic peptide (PEPSCAN-ELISA) [1]: 0.6; Binding of serum London to linear peptides of protein X1 of SARS-CoV Urbani [1]: 0.3; Binding of serum London to looped/cyclic peptide (PEPSCAN-ELISA) [1]: 0.2; Binding of serum SARS-green to linear peptides of protein X1 of SARS-CoV Urbani [1]: 0.2; Binding of serum SARS-green to looped/cyclic peptide (PEPSCAN-ELISA) [1]: 0.4; Binding of serum SARS-yellow to linear peptides of protein X1 of SARS-CoV Urbani [1]: 0.4; Binding of serum SARS-yellow to looped/cyclic peptide (PEPSCAN-ELISA) [1]: 0.4
2 | HFAFACADGTRHTYQ |  |  | 0.8 | 0.6 | 0.7 | 0.7 |  |  |  |  |  |  |  |  |  |  |  |  |  |  | Binding of serum 1a to linear peptides of protein X4 of SARS-CoV Urbani [1]: 0.7; Binding of serum 1a to looped/cyclic peptides of protein X4 of SARS-CoV Urbani [1]: 0.6; Binding of serum 1b to linear peptides of protein X4 of SARS-CoV Urbani [1]: 0.5; Binding of serum 1b to looped/cyclic peptides of protein X4 of SARS-CoV Urbani [1]: 0.5; Binding of serum 2 to linear peptides of protein X4 of SARS-CoV Urbani [1]: 0.4; Binding of serum 2 to looped/cyclic peptides of protein X4 of SARS-CoV Urbani [1]: 0.6; Binding of serum 6 to linear peptides of protein X4 of SARS-CoV Urbani [1]: 0.6; Binding of serum 6 to looped/cyclic peptides of protein X4 of SARS-CoV Urbani [1]: 0.6; Binding of serum 37 to linear peptides of protein X4 of SARS-CoV Urbani [1]: 0.6; Binding of serum 37 to looped/cyclic peptides of protein X4 of SARS-CoV Urbani [1]: 0.6; Binding of serum 62 to linear peptides of protein X4 of SARS-CoV Urbani [1]: 0.6; Binding of serum 62 to looped/cyclic peptides of protein X4 of SARS-CoV Urbani [1]: 0.5; Binding of serum London to linear peptides of protein X4 of SARS-CoV Urbani [1]: 0.6; Binding of serum London to looped/cyclic peptides of protein X4 of SARS-CoV Urbani [1]: 0.2; Binding of serum SARS-green to linear peptides of protein X4 of SARS-CoV Urbani [1]: 0.6; Binding of serum SARS-green to looped/cyclic peptides of protein X4 of SARS-CoV Urbani [1]: 0.2; Binding of serum SARS-yellow to linear peptides of protein X4 of SARS-CoV Urbani [1]: 0.1; Binding of serum SARS-yellow to looped/cyclic peptides of protein X4 of SARS-CoV Urbani [1]: 0.4; Rabbit serum linear peptides [2]: 0.4; Rabbit serum looped peptides [2]: 0.1
3 | HITVSQIQLSLLKVT | 0.7 | 0.4 | 0.6 | 0.6 | 0.8 | 0.5 | 0.6 | 0.5 | 0.5 | 0.5 | 0.5 | 0.5 | 0.5 | 0.4 | 0.7 | 0.5 | 0.5 | 0.6 | 0.4 | 0.8 | Binding of serum SARS-green to linear peptides of protein X2 [1]: 0.2; Binding of serum SARS-green to looped/cyclic peptides of protein X2 of SARS-CoV Urbani [1]: 0.4; Binding of serum SARS-yellow to linear peptides of protein X2 [1]: 0.8; Binding of serum SARS-yellow to looped/cyclic peptides of protein X2 of SARS-CoV Urbani [1]: 0.6
4 | HKLLQTLVLKMLHSS | 0.2 | 0.4 | 0.7 | 0.6 | 0.4 | 0.7 | 0.5 | 0.6 | 0.5 | 0.6 | 0.4 | 0.4 | 0.2 | 0.4 | 0.5 | 0.5 | 0.5 | 0.7 | 0.4 | 0.3 | Binding of serum SARS-green to linear peptides of protein X2 [1]: 0.4; Binding of serum SARS-green to looped/cyclic peptides of protein X2 of SARS-CoV Urbani [1]: 0.3; Binding of serum SARS-yellow to linear peptides of protein X2 [1]: 0.5; Binding of serum SARS-yellow to looped/cyclic peptides of protein X2 of SARS-CoV Urbani [1]: 0.5
